Source: article PMC6895180 (Nature Communications, 2019)
Values joined by “and” are separate entries in the source; they are usually repeats but may differ in a detail not shown here. Equal entries are not always repeated. Where two headings read alike, the source gives them in different places. Marks after values point to notes of the source that are not given here.

How the values were obtained:
[1] = test system: P1 transporter; type: cell-based, Trypanosoma brucei; settings: mean ± SEM, n = 3
Protocol: Non-specific association of radiolabel with the cell pellet was determined using an identical incubation in the presence of saturating (1 mM) unlabelled adenosine.

[2] = test system: T. b. rhodesiense STIB-900; test: microbe, parasite or virus in culture; type: cell-based, Trypanosoma brucei rhodesiense; settings: Trypanosoma brucei, RHODESIENSE
Protocol: (§1) Drug susceptibility tests with Lister 427WT, TbAT1-KO[48], B48[26] and ISMR1[27] were performed using an assay based on the viability indicator dye resazurin in 96-well plates, each well containing 2 × 10^4 cells. The plates were incubated for 48 h with a doubling dilution series of the test compounds in HMI-9/fetal bovine serum at 37 °C/5% CO2 (23 dilutions starting at 100 µM, except for the pentamidine control (50 µM)), after which resazurin (20 µL of 125 µg mL^−1 resazurin sodium salt solution was added to each well (containing 200 µL of cells and test compound)) was added to each well and the plates incubated for another 24 h. Fluorescence was determined using a FLUOstar Optima (BMG Labtech, Durham, NC) and the results fitted to a sigmoid curve with variable slope using Prism 5.0 or Prism 7.04 (GraphPad, San Diego, CA).
(§2) Susceptibility assays with T. brucei Squib 427[49] or T. b. rhodesiense STIB-900[50] were performed under similar conditions as above, but using 10 concentrations of a 4-fold compound dilution series starting at 64 µM. Trypanosoma brucei Squib 427 was seeded at 1.5 × 10^4 parasites/well and T. b. rhodesiense at 4 × 10^3 parasites per well, followed by the addition of resazurin (final concentration of 10 µg mL^−1) after 24 h (T. brucei) or 6 h (T. b. rhodesiense).

[3] = test system: T. b. brucei Lister 427WT; test: Drug susceptibility test (resazurin), Lister 427WT; type: cell-based, Trypanosoma brucei brucei
Protocol: as §1

[4] = test system: ISMR1: isometamidium-resistant T. brucei cell line; test: microbe, parasite or virus in culture; type: cell-based, Trypanosoma brucei brucei
Protocol: as §1

[5] = test system: TbAT1-KO: T. brucei cell line lacking the TbAT1(P2) transporter gene; test: microbe, parasite or virus in culture; type: cell-based, Trypanosoma brucei brucei
Protocol: as §1

[6] = test system: T. brucei Squib 427; test: microbe, parasite or virus in culture; type: cell-based, Trypanosoma brucei brucei
Protocol: as §1, §2

[7] = test system: B48: pentamidine, diminazene and melaminophenyl arsenical resistant T. brucei line; test: microbe, parasite or virus in culture; type: cell-based, Trypanosoma brucei brucei
[8] = Cytotoxicity on MRC-5 fibroblasts (resazurin); type: cell-based, human; settings: human, MRC-5SV2 human embryonic lung fibroblasts
Protocol: Cytotoxicity assays were performed on MRC-5SV2 (Sigma-Aldrich/ECACC, catalogue number 84100401) human embryonic lung fibroblasts, which were cultured in minimum essential medium with Earle’s salt medium, supplemented with L-glutamine, NaHCO3 and 5% inactivated foetal calf serum. All cultures and assays were conducted at 37 °C with 5% CO2. Ten microliters of the aqueous compound dilutions were added to 190 µL of MRC-5SV2 (3 × 10^4 cells mL^−1). Cell growth was compared to untreated control wells (100% cell growth) and medium control wells (0% cell growth). After a 3-day incubation, cell viability was assessed fluorimetrically after the addition of 50 μL resazurin per well (final concentration of 10 µg mL^−1). After 4 h at 37 °C, fluorescence was measured (λex 550 nm, λem 590 nm). The results were expressed as percentage reduction in cell growth/viability compared to control wells and an EC50 was determined.

[9] = Metabolic stability, rat liver microsomes (phase I and II)
Protocol: (§3) Mouse, rat, and pooled human liver microsomes were purchased from a commercial source (Corning) and stored at -80 °C. NADPH generating system solutions A and B and UGT reaction mix solutions A and B (Corning) were kept at -20°C. The test compound and the reference compounds diclofenac (MW […]
(§4) microsomal stability assay was carried out based on the BD Biosciences Guidelines for Use (TF000017 Rev1.0) with minor adaptations. Metabolic stability of the compounds was studied through the CYP450 superfamily (phase I metabolism) by fortification with reduced nicotinamide adenine dinucleotide phosphate (NADPH) and through uridine glucuronosyl-transferase (UGT) enzymes (phase II metabolism) by fortification with uridine diphosphate glucuronic acid (UDPGA). For the CYP450 and other NADPH dependent enzymes, both compounds were incubated at 5 µM together with 0.5 mg mL-1 liver microsomes in potassium phosphate buffer in a reaction started by the addition of 1 mM NADPH […]
(§5) At these time points, 20 µL was withdrawn from the reaction mixture and 80 µL cold acetonitrile (ACN) containing the internal standard tolbutamide, was added to inactivate the enzymes and precipitate the proteins. The mixture was vortexed for 30 s and centrifuged at 4 °C for 5 min at 15,000 rpm. The supernatant was stored at -80°C until analysis. For the UGT enzymes, both compounds were incubated at 5 µM together with 0.5 mg mL-1 liver microsomes in a reaction started by the addition of 2 mM UDPGA cofactor. The corresponding loss of parent compound was determined using liquid chromatography (UPLC) (Waters AquityTM) coupled with tandem quadrupole mass spectrometry (MS²) (Waters XevoTM), equipped with an electrospray ionization (ESI) interface and operated in multiple reaction monitoring (MRM) mode. […]

[10] = Metabolic stability, mouse liver microsomes (phase I and II)
Protocol: as §3, §4, §5

[11] = Metabolic stability, pooled human liver microsomes (phase I and II)
Protocol: as §3, §4, §5

[12] = target: T1, T. brucei ADKIN (Trypanosoma brucei brucei, UniProt Q584S6); test: ADKIN assay (phosphorylation by purified recombinant enzyme, HPLC); type: biochemical
T1 sequence (Q584S6 1-345): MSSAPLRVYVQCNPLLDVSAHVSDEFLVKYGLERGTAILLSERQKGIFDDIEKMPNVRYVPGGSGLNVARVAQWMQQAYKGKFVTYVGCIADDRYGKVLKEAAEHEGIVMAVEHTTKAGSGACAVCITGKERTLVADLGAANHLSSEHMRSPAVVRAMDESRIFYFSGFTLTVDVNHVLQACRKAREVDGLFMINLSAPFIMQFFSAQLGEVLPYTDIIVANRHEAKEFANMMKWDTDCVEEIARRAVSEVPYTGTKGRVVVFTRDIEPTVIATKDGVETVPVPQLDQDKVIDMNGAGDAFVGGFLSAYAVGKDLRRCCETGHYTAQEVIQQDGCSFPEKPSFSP
Protocol: The T. brucei ADKIN enzyme was diluted in a buffer containing 0.05% (v/v) Tween-20, 50 mM KCl, 0.1 mM dithiothreitol, and 50 mM Tris-HCl, pH 7.5 (dilution buffer), prior to use in the assay. The final assay mixture contained 12.5 ng T. brucei ADKIN, a range between 50 and 1000 µM of nucleoside 9 (or 1000 µM deoxyadenosine in the control reaction), 100 mM KCl, 10 mM MgCl2, 0.5 mM ATP, 5 mM potassium phosphate and 50 mM Tris-HCl, pH 7.5. The assay was incubated at 37 °C for 30 min, and subsequently heated for 2 min at 100 °C to inactivate the enzyme, diluted with 2 volumes of water, centrifuged through a Nanosep 3k Omega filter and mixed 1:1:2 with water and mobile phase. The HPLC analysis was performed on a 2.1 × 150 mm ACE Excel C18 column using a mobile phase composition 4A:76B:20C (see nucleotide pool analysis, Supplementary Information for details). Using these conditions, consecutive samples could be loaded (Supplementary Fig. 12). After 4–5 samples, the column was washed with high percent A (80A:20C) to remove bound ADP and ATP before re-equilibrating the column to original conditions.

[13] = resistance factor vs Lister 427WT

Nc1ncnc2c1ncn2[C@@H]1O[C@H](CO)[C@@H](O)[C@H]1O [Adenosine, reference compound]
Km [1]: 0.12 ± 0.02 µM

Nc1ncnc2c1ccn2[C@H]1C[C@H](O)[C@@H](CO)O1 [Compound 11, 2′-Deoxy-TUB]
EC50 ([2]; Alamar blue cell viability assay, mean and SEM, read-out: T. b. rhodesiense EC50): > 64 µM | EC50 ([2]; source data, read-out: T. brucei rhodesiense EC50, single measurements): > 64 µM | EC50 ([3]; Trypanosoma brucei, mean and SEM, n = 3, read-out: Lister 427 EC50): 96.4 ± 13.8 µM | EC50 ([3]; Trypanosoma brucei, source data, read-out: s427 EC50, single determinations): 82.6 µM | EC50 ([3]; source data, read-out: s427 EC50, single determinations): 97.4 µM | EC50 ([4]; Trypanosoma brucei, mean and SEM, n = 3, read-out: ISMR1 EC50): 77.8 ± 1.7 µM | EC50 ([4]; Trypanosoma brucei, source data, read-out: ISMR1 EC50, single determinations): 77.3 µM | RF (ISMR1) [4, 13]: 0.81 | EC50 ([4]; source data, read-out: ISMR1 EC50, single determinations): 81 µM and 75.1 µM | EC50 ([5]; Trypanosoma brucei, read-out: TbAT1-KO EC50, mean and SEM, n = 3): 43.7 ± 2.2 µM | EC50 ([5]; Trypanosoma brucei, read-out: TbAT1-KO EC50, single determinations, source data): 41.5 µM | EC50 ([5]; read-out: TbAT1-KO EC50, single determinations, source data): 45.9 µM and 46.9 µM | RF (TbAT1-KO) ([5]; resistance factor: ratio of EC50 of resistant and Lister 427WT): 0.45** | EC50 ([6]; Trypanosoma brucei, Alamar blue cell viability assay, mean and SEM, read-out: T. b. brucei EC50): 48 ± 1 µM | EC50 ([6]; Trypanosoma brucei, source data, read-out: T. brucei brucei EC50, Average): 48.5 µM | EC50 ([6]; Trypanosoma brucei, source data, read-out: T. brucei brucei EC50, single measurements): 49.9 µM | SI (MRC/T.b. brucei) ([6]; selectivity index): 1.3 | EC50 ([6]; source data, read-out: T. brucei brucei EC50, single measurements): 47.2 µM | EC50 ([7]; Trypanosoma brucei, mean and SEM, n = 3, read-out: B48 EC50): 41.8 ± 1.4 µM | EC50 ([7]; Trypanosoma brucei, source data, read-out: B48 EC50, single determinations): 40.3 µM | RF (B48) [7, 13]: 0.43** | EC50 ([7]; source data, read-out: B48 EC50, single determinations): 43.2 µM and 40.8 µM | EC50 at 3 day ([8]; cytotoxicity in human MRC-5 fibroblasts, mean and SEM, read-out: MRC-5 EC50): > 64 µM | EC50 at 3 day ([8]; source data, read-out: MRC-5 EC50, single measurements): > 64 µM

OC(Cn1cncn1)(Cn1cncn1)c1ccc(F)cc1F [Fluco, fluconazole, reference compound]
% parent compound remaining ([9]; CYP - NADPH, 15 min): 110% | % parent compound remaining ([9]; CYP - NADPH, 30 min): 104% | % parent compound remaining ([9]; CYP - NADPH, 60 min): 96% | % parent compound remaining ([9]; UGT Enzymes, 15 min): 111% | % parent compound remaining ([9]; UGT Enzymes, 30 min): 105% | % parent compound remaining ([9]; UGT Enzymes, 60 min): 112% | % parent compound remaining ([10]; CYP - NADPH, 15 min): 111±12% | % parent compound remaining ([10]; CYP - NADPH, 30 min): 93±19% | % parent compound remaining ([10]; CYP - NADPH, 60 min): 100±12% | % parent compound remaining ([10]; UGT Enzymes, 15 min): 99±19% | % parent compound remaining ([10]; UGT Enzymes, 30 min): 104±3% | % parent compound remaining ([10]; UGT Enzymes, 60 min): 100±6% | % parent compound remaining ([11]; CYP - NADPH, 15 min): 110% | % parent compound remaining ([11]; CYP - NADPH, 30 min): 80% | % parent compound remaining ([11]; CYP - NADPH, 60 min): 103% | % parent compound remaining ([11]; UGT Enzymes, 15 min): 103% | % parent compound remaining ([11]; UGT Enzymes, 30 min): 116% | % parent compound remaining ([11]; UGT Enzymes, 60 min): 106%

Nc1ncnc2c1ncn2[C@H]1C[C@H](O)[C@@H](CO)O1 [dAdo, 2′-deoxyadenosine, reference compound]
product concentration (Conc.9-MP) ([12]; TbAK control reaction, [dAdo] 1000 µM): 34.4568 and 29.4118 and 31.8858 | Act (U/mg) ([12]; TbAK, substrate 1000 µM): 4.594 U/mg and 3.922 U/mg and 4.251 U/mg
